Data published in PubChem BioAssay (NCI).
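Compound exposure: 48 hours, 5 concentrations, 96-well plates. Abbreviation: GI50, concentration required for 50% inhibition of growth. The concentration for full growth arrest is given as TGI.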

Tests used:
Experiment in all cases: NCI-60 cell line screen, 48 h
NCI/ADR-RES ovarian = tested on: NCI/ADR-RES ovarian
HS 578T breast = tested on: HS 578T breast
SW-620 colon = tested on: SW-620 colon
RXF 393 renal = tested on: RXF 393 renal
UACC-257 melanoma = tested on: UACC-257 melanoma
OVCAR-4 ovarian = tested on: OVCAR-4 ovarian
K-562 leukemia = tested on: K-562 leukemia
SNB-19 CNS = tested on: SNB-19 CNS

## [N-]=[N+]=NCCCCCC(=O)OC(C(=O)c1ccccc1)c1cccc(OCC(=O)NCCOCCOCCNC(=O)CCCC[C@@H]2SC[C@@H]3NC(=O)N[C@@H]32)c1 (some centres undefined)
NCI/ADR-RES ovarian
  GI50: > 100 µM
  TGI: > 100 µM
HS 578T breast
  GI50: > 100 µM
  TGI: > 100 µM
SW-620 colon
  GI50: > 100 µM
  TGI: > 100 µM
RXF 393 renal
  GI50: 56.3 µM
  TGI: > 100 µM
UACC-257 melanoma
  GI50: > 100 µM
  TGI: > 100 µM
OVCAR-4 ovarian
  GI50: > 100 µM
  TGI: > 100 µM
K-562 leukemia
  GI50: 62.9 µM
  TGI: > 100 µM
SNB-19 CNS
  GI50: > 100 µM
  TGI: > 100 µM

## O=c1[nH]c(=S)[nH]c2c1CN(CCCN1CCOCC1)CN2
NCI/ADR-RES ovarian
  TGI: > 100 µM
HS 578T breast
  TGI: > 100 µM
SW-620 colon
  TGI: > 100 µM
UACC-257 melanoma
  TGI: > 100 µM
OVCAR-4 ovarian
  TGI: > 100 µM
K-562 leukemia
  TGI: > 100 µM
SNB-19 CNS
  TGI: > 100 µM

## Cc1csc(/C=C/C(=O)c2nnn(-c3ccnc4c(C(F)(F)F)cccc34)c2C)c1
NCI/ADR-RES ovarian
  GI50: 47.7 µM
  TGI: > 100 µM
HS 578T breast
  GI50: > 100 µM
  TGI: > 100 µM
SW-620 colon
  GI50: > 100 µM
  TGI: > 100 µM
RXF 393 renal
  GI50: > 100 µM
  TGI: > 100 µM
UACC-257 melanoma
  GI50: 13.7 µM
  TGI: 60.9 µM
K-562 leukemia
  GI50: 23 µM
  TGI: > 100 µM
SNB-19 CNS
  GI50: 72.8 µM
  TGI: > 100 µM

## O=C(COc1cc(O)c2c(=O)cc(-c3ccccc3)oc2c1)Nc1ccccc1C(F)(F)F
NCI/ADR-RES ovarian
  GI50: 3.45 µM
  TGI: 22.5 µM
HS 578T breast
  GI50: 2.6 µM
  TGI: 7.79 µM
SW-620 colon
  GI50: 3.56 µM
  TGI: > 100 µM
RXF 393 renal
  GI50: 2.21 µM
  TGI: 6.34 µM
UACC-257 melanoma
  GI50: > 100 µM
  TGI: > 100 µM
OVCAR-4 ovarian
  GI50: 2.45 µM
  TGI: 5.94 µM
K-562 leukemia
  GI50: 5.03 µM
  TGI: > 100 µM
SNB-19 CNS
  GI50: 4.17 µM
  TGI: 21.7 µM

## O=C(Nc1ccc(Cl)c(Cl)c1)Nc1c(Oc2ccc(Cl)c(Cl)c2)ccc(Cl)c1S(=O)(=O)O
NCI/ADR-RES ovarian
  GI50: 0.959 µM
  TGI: > 100 µM
HS 578T breast
  GI50: 2.21 µM
  TGI: 8.79 µM
SW-620 colon
  GI50: 1.27 µM
  TGI: > 100 µM
RXF 393 renal
  GI50: 1.92 µM
  TGI: 5.64 µM
K-562 leukemia
  GI50: 0.516 µM
  TGI: > 100 µM
SNB-19 CNS
  GI50: 3.42 µM
  TGI: > 100 µM

## CCOC(=O)c1cc2c(cc1Cl)SC(N(c1ccc(OC)cc1)S(=O)(=O)c1ccc(Cl)cc1)=NS2(=O)=O
NCI/ADR-RES ovarian
  GI50: 31.5 µM
  TGI: 88.6 µM
HS 578T breast
  GI50: 46.7 µM
  TGI: > 100 µM
SW-620 colon
  GI50: 27.6 µM
  TGI: 72.8 µM
OVCAR-4 ovarian
  GI50: 26.1 µM
  TGI: > 100 µM
K-562 leukemia
  GI50: 38.6 µM
  TGI: > 100 µM
SNB-19 CNS
  GI50: 36.8 µM
  TGI: > 100 µM

## NCCCCCCCn1c2c(c3ccccc3c1=O)C(=O)c1ccccc1-2
NCI/ADR-RES ovarian
  GI50: 2.56 µM
  TGI: 7.87 µM
HS 578T breast
  GI50: 1.8 µM
  TGI: 4.31 µM
SW-620 colon
  GI50: 1.14 µM
  TGI: 2.42 µM
RXF 393 renal
  GI50: 1.57 µM
  TGI: 3.39 µM
UACC-257 melanoma
  GI50: 2.19 µM
  TGI: 4.09 µM
OVCAR-4 ovarian
  GI50: 2.34 µM
  TGI: 6.58 µM
K-562 leukemia
  GI50: 1.31 µM
  TGI: 2.62 µM
SNB-19 CNS
  GI50: 1.86 µM
  TGI: 4.82 µM

## Cc1ccc(/C(O)=C/C(=O)C(=O)NC23CC4CC(CC(C4)C2)C3)cc1
SW-620 colon
  TGI: > 10 µM
RXF 393 renal
  TGI: > 10 µM
UACC-257 melanoma
  TGI: > 10 µM
OVCAR-4 ovarian
  TGI: > 10 µM
K-562 leukemia
  TGI: > 10 µM

## Nc1c(C(=O)Nc2cccc(F)c2)sc2nc3c(cc12)C(=O)CCC3
NCI/ADR-RES ovarian
  GI50: 0.487 µM
  TGI: > 100 µM
HS 578T breast
  GI50: 0.634 µM
  TGI: > 100 µM
SW-620 colon
  GI50: 0.35 µM
  TGI: > 100 µM
RXF 393 renal
  GI50: 0.248 µM
OVCAR-4 ovarian
  GI50: > 55.1 µM
  TGI: > 100 µM
K-562 leukemia
  GI50: 0.16 µM
  TGI: > 75 µM
SNB-19 CNS
  GI50: 29.5 µM
  TGI: > 100 µM

## CC(C)O/N=C/c1cc(NC(=S)OC(C)C)ccc1Cl
NCI/ADR-RES ovarian
  TGI: > 84.9 µM
HS 578T breast
  TGI: > 79.2 µM
SW-620 colon
  TGI: > 72.6 µM
RXF 393 renal
  TGI: 52.9 µM
UACC-257 melanoma
  TGI: > 100 µM
OVCAR-4 ovarian
  TGI: > 88.8 µM
K-562 leukemia
  TGI: > 53.4 µM
SNB-19 CNS
  TGI: > 72.4 µM

## C[C@@]12CCC[C@@](C)(C(=O)O)C1CC[C@]13C[C@@](O)(CO)[C@](O)(CCC12)C3 (some centres undefined)
NCI/ADR-RES ovarian
  GI50: > 100 µM
  TGI: > 100 µM
HS 578T breast
  GI50: > 100 µM
  TGI: > 100 µM
SW-620 colon
  GI50: > 100 µM
  TGI: > 100 µM
RXF 393 renal
  GI50: > 100 µM
  TGI: > 100 µM
UACC-257 melanoma
  GI50: > 100 µM
  TGI: > 100 µM
OVCAR-4 ovarian
  GI50: > 100 µM
  TGI: > 100 µM
K-562 leukemia
  GI50: > 100 µM
  TGI: > 100 µM
SNB-19 CNS
  GI50: > 100 µM
  TGI: > 100 µM

## Nc1nc2c(ncn2C2C=CC(CO)C2)c(=O)[nH]1 (centres undefined)
NCI/ADR-RES ovarian
  TGI: > 100 µM
HS 578T breast
  TGI: > 100 µM
SW-620 colon
  TGI: > 100 µM
RXF 393 renal
  TGI: > 100 µM
UACC-257 melanoma
  TGI: > 100 µM
OVCAR-4 ovarian
  TGI: > 100 µM
K-562 leukemia
  TGI: > 100 µM
SNB-19 CNS
  TGI: > 100 µM

## CC1CCCC(C(O)CC2CC(=O)NC(=O)C2)C1O (centres undefined)
NCI/ADR-RES ovarian
  TGI: > 100 µM
HS 578T breast
  TGI: > 100 µM
SW-620 colon
  TGI: > 100 µM
RXF 393 renal
  TGI: > 100 µM
UACC-257 melanoma
  TGI: > 100 µM
OVCAR-4 ovarian
  TGI: > 100 µM
K-562 leukemia
  TGI: > 100 µM
SNB-19 CNS
  TGI: > 100 µM

## Cc1nnc(-c2cccc(-c3ccc(C(=O)NCC4CC4)cc3)c2)o1
NCI/ADR-RES ovarian
  GI50: > 25 µM
  TGI: > 25 µM
HS 578T breast
  GI50: > 25 µM
  TGI: > 25 µM
SW-620 colon
  GI50: > 25 µM
  TGI: > 25 µM
RXF 393 renal
  GI50: > 25 µM
  TGI: > 25 µM
UACC-257 melanoma
  GI50: > 25 µM
  TGI: > 25 µM
OVCAR-4 ovarian
  GI50: > 25 µM
  TGI: > 25 µM
K-562 leukemia
  GI50: > 25 µM
  TGI: > 25 µM
SNB-19 CNS
  GI50: > 25 µM
  TGI: > 25 µM

## COc1cc(N(C)C)c(OC)cc1/C=C\c1ccnc2ccccc12
NCI/ADR-RES ovarian
  TGI: 7.66 µM
HS 578T breast
  TGI: > 10 µM
SW-620 colon
  TGI: > 10 µM
RXF 393 renal
  TGI: > 10 µM
UACC-257 melanoma
  TGI: > 10 µM
OVCAR-4 ovarian
  TGI: > 10 µM
K-562 leukemia
  TGI: > 10 µM
SNB-19 CNS
  TGI: > 10 µM

## COc1ccc2ccccc2c1C1NC(=O)c2ccccc2N1 (centres undefined)
NCI/ADR-RES ovarian
  TGI: 3.02 µM
HS 578T breast
  TGI: > 31.3 µM
SW-620 colon
  TGI: > 37.5 µM
RXF 393 renal
  TGI: > 23.6 µM
UACC-257 melanoma
  TGI: > 100 µM
SNB-19 CNS
  TGI: > 100 µM

## C/C1=C/C(=O)O[C@@H]2C[C@@H](CC[C@H](C)/C=C\C=C\CC1)O[C@@](O)([C@@H]1CSC(=O)N1)C2
NCI/ADR-RES ovarian
  TGI: > 10 µM
HS 578T breast
  TGI: 0.512 µM
RXF 393 renal
  TGI: 0.752 µM
UACC-257 melanoma
  TGI: > 10 µM
OVCAR-4 ovarian
  TGI: > 10 µM
K-562 leukemia
  TGI: > 10 µM
SNB-19 CNS
  TGI: > 7.89 µM

## COc1cc(C(=O)N2CCN(c3ncnc4ccccc34)CC2)c(N)cc1OCc1ccccc1
NCI/ADR-RES ovarian
  GI50: 16.1 µM
  TGI: 35.1 µM
HS 578T breast
  GI50: 17.1 µM
  TGI: 55.7 µM
SW-620 colon
  GI50: 11.4 µM
  TGI: 23.5 µM
RXF 393 renal
  GI50: 13.1 µM
  TGI: 27 µM
UACC-257 melanoma
  GI50: 21.7 µM
  TGI: 48.5 µM
OVCAR-4 ovarian
  GI50: 13.2 µM
  TGI: 47 µM
K-562 leukemia
  GI50: 16.1 µM
  TGI: 42.8 µM
SNB-19 CNS
  GI50: 13.7 µM
  TGI: 29.8 µM
